# Read-outs that look alike come from different tables or passages of the source.
# What was measured:
# [1] = molecular target: T1, XIAP His-BIR2 (124-240/C202A/C213G) (Homo sapiens, UniProt P98170, C202A/C213G); experiment: XIAP-BIR2/SMAC Peptide AlphaScreen Assay; format: binding; details: XIAP BIR2, AlphaScreen, Table 2; read-out: BIR2 IC50
# T1 construct: additions of His-BIR2 (124-240/C202A/C213G), Biotinylated SMAC peptide
# Method: A. XIAP-BIR2/SMAC Peptide AlphaScreen Assay Assays were performed in white, flat-bottom, 384-well ProxiPlates (Perkin Elmer). […] The reaction was incubated at room temperature for 60 minutes. After 60 minutes, 2.5 μL of Alphascreen detection reagent (Perkin Elmer) was added to the reaction mixture and incubated at room temperature in the dark for 120 minutes. The Alphascreen signal generated by the reaction was detected on the Envision Plate Reader. […] Compounds were dissolved at 10 mM in dimethylsulfoxide (DMSO) and evaluated at eleven concentrations. IC50 values were derived by non-linear regression analysis.
# [2] = molecular target: N-His-Tb-BIR3(241-356, XIAP) (Homo sapiens, UniProt P98170); experiment: XIAP-BIR3 SMAC Peptide Fluorescence Polarization Assay (FPA); format: binding
# Sequence of N-His-Tb-BIR3(241-356, XIAP) (P98170 241-356): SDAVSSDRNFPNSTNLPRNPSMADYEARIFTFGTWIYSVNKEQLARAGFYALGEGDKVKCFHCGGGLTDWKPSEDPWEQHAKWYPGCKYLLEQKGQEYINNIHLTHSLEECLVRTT
# T1 sequence (P98170 124-240 C202A/C213G): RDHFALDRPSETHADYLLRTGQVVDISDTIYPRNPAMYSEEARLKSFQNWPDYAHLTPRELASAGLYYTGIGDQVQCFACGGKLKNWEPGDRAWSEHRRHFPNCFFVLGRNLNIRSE
"IC50 ([2]; XIAP BIR3, FPA, Table 2, read-out: BIR3 IC50) [nM]",SMILES,IC50 [1] [nM],IC50 [2] [nM]
,CN[C@@H](C)C(=O)N[C@H](C(=O)N1C[C@@H]2C[C@H]1C(=O)N[C@@H](Cc1cccc(C(F)(F)F)c1)C(=O)N[C@H](C(=O)O)Cc1ccc(cc1)COc1cn(nn1)[C@H]1C[C@@H](C(=O)N[C@@H](Cc3cccc(C(F)(F)F)c3)C(=O)N[C@H](C(=O)O)Cc3ccc(cc3)OCc3cn2nn3)N(C(=O)[C@@H](NC(=O)[C@H](C)NC)C(C)C)C1)C(C)C [Compound 112],2000 to 12000,< 50
,CN[C@@H](C)C(=O)N[C@H](C(=O)N1C[C@@H]2C[C@H]1C(=O)N[C@@H](Cc1ccc(C(F)(F)F)cc1)C(=O)N[C@H](C(=O)O)Cc1ccc(cc1)COc1cn(nn1)[C@H]1C[C@@H](C(=O)N[C@@H](Cc3ccc(C(F)(F)F)cc3)C(=O)N[C@H](C(=O)O)Cc3ccc(cc3)OCc3cn2nn3)N(C(=O)[C@@H](NC(=O)[C@H](C)NC)C(C)C)C1)C(C)C [Compound 113],> 12000,50 to 100
,CN[C@@H](C)C(=O)N[C@H](C(=O)N1C[C@@H]2C[C@H]1C(=O)N[C@@H](Cc1ccc(-c3ccccc3)cc1)C(=O)N[C@H](C(=O)O)Cc1ccc(cc1)COc1cn(nn1)[C@H]1C[C@@H](C(=O)N[C@@H](Cc3ccc(-c4ccccc4)cc3)C(=O)N[C@H](C(=O)O)Cc3ccc(cc3)OCc3cn2nn3)N(C(=O)[C@@H](NC(=O)[C@H](C)NC)C(C)C)C1)C(C)C [Compound 114],< 2000,< 50
,CN[C@@H](C)C(=O)N[C@H](C(=O)N1C[C@@H]2C[C@H]1C(=O)N[C@@H](Cc1ccc(OCc3ccccc3)cc1)C(=O)N[C@H](C(=O)O)Cc1ccc(cc1)COc1cn(nn1)[C@H]1C[C@@H](C(=O)N[C@@H](Cc3ccc(OCc4ccccc4)cc3)C(=O)N[C@H](C(=O)O)Cc3ccc(cc3)OCc3cn2nn3)N(C(=O)[C@@H](NC(=O)[C@H](C)NC)C(C)C)C1)C(C)C [Compound 115],2000 to 12000,< 50
,CC[C@H](NC(=O)[C@H](C)NC)C(=O)N1C[C@@H]2C[C@H]1C(=O)N[C@@H](Cc1ccccc1)C(=O)N[C@H](C(=O)O)Cc1ccc(cc1)OCc1cn(nn1)[C@H]1C[C@@H](C(=O)N[C@@H](Cc3ccccc3)C(=O)N[C@H](C(=O)O)Cc3ccc(cc3)OCc3cn2nn3)N(C(=O)[C@H](CC)NC(=O)[C@H](C)NC)C1 [Compound 117],< 2000,< 50
,CN[C@@H](C)C(=O)N[C@@H](C)C(=O)N1C[C@@H]2C[C@H]1C(=O)N[C@@H](Cc1ccccc1)C(=O)N[C@H](C(=O)O)Cc1ccc(cc1)OCc1cn(nn1)[C@H]1C[C@@H](C(=O)N[C@@H](Cc3ccccc3)C(=O)N[C@H](C(=O)O)Cc3ccc(cc3)OCc3cn2nn3)N(C(=O)[C@H](C)NC(=O)[C@H](C)NC)C1 [Compound 118],> 12000,50 to 100
,CN[C@@H](C)C(=O)N[C@@H](CC(C)C)C(=O)N1C[C@@H]2C[C@H]1C(=O)N[C@@H](Cc1ccccc1)C(=O)N[C@H](C(=O)O)Cc1ccc(cc1)OCc1cn(nn1)[C@H]1C[C@@H](C(=O)N[C@@H](Cc3ccccc3)C(=O)N[C@H](C(=O)O)Cc3ccc(cc3)OCc3cn2nn3)N(C(=O)[C@H](CC(C)C)NC(=O)[C@H](C)NC)C1 [Compound 119],< 2000,< 50
,CN[C@@H](C)C(=O)N[C@H](C(=O)N1C[C@@H]2C[C@H]1C(=O)N[C@@H](Cc1ccccc1)C(=O)N[C@H](C(=O)O)Cc1ccc(cc1)OCc1cn(nn1)[C@H]1C[C@@H](C(=O)N[C@@H](Cc3ccccc3)C(=O)N[C@H](C(=O)O)Cc3ccc(cc3)OCc3cn2nn3)N(C(=O)[C@@H](NC(=O)[C@H](C)NC)C2CCCCC2)C1)C1CCCCC1 [Compound 120],< 2000,< 50
> 100,CN[C@@H](C)C(=O)NCC1(C(=O)N2C[C@@H]3C[C@H]2C(=O)N[C@@H](Cc2ccccc2)C(=O)N[C@H](C(=O)O)Cc2ccc(cc2)OCc2cn(nn2)[C@H]2C[C@@H](C(=O)N[C@@H](Cc4ccccc4)C(=O)N[C@H](C(=O)O)Cc4ccc(cc4)OCc4cn3nn4)N(C(=O)C3(CNC(=O)[C@H](C)NC)CC3)C2)CC1 [Compound 121],> 12000,
,CN[C@@H](C)C(=O)N[C@H](C(=O)N1C[C@@H]2C[C@H]1C(=O)N[C@@H](CC1CCCCC1)C(=O)N[C@H](C(=O)O)Cc1ccc(cc1)OCc1cn(nn1)[C@H]1C[C@@H](C(=O)N[C@@H](CC3CCCCC3)C(=O)N[C@H](C(=O)O)Cc3ccc(cc3)OCc3cn2nn3)N(C(=O)[C@@H](NC(=O)[C@H](C)NC)C(C)C)C1)C(C)C [Compound 122],2000 to 12000,> 100
,CN[C@@H](C)C(=O)N[C@H](C(=O)N1C[C@@H]2C[C@H]1C(=O)N[C@@H](COCc1ccccc1)C(=O)N[C@H](C(=O)O)Cc1ccc(cc1)OCc1cn(nn1)[C@H]1C[C@@H](C(=O)N[C@@H](COCc3ccccc3)C(=O)N[C@H](C(=O)O)Cc3ccc(cc3)OCc3cn2nn3)N(C(=O)[C@@H](NC(=O)[C@H](C)NC)C(C)C)C1)C(C)C [Compound 123],2000 to 12000,> 100
,CN[C@@H](C)C(=O)N[C@H](C(=O)N1C[C@@H]2C[C@H]1C(=O)N[C@@H](Cc1csc3ccccc13)C(=O)N[C@H](C(=O)O)Cc1ccc(cc1)OCc1cn(nn1)[C@H]1C[C@@H](C(=O)N[C@@H](Cc3csc4ccccc34)C(=O)N[C@H](C(=O)O)Cc3ccc(cc3)OCc3cn2nn3)N(C(=O)[C@@H](NC(=O)[C@H](C)NC)C(C)C)C1)C(C)C [Compound 124],< 2000,< 50
,CN[C@@H](C)C(=O)N[C@H](C(=O)N1C[C@@H]2C[C@H]1C(=O)N[C@@H](Cc1c[nH]c3ccccc13)C(=O)N[C@H](C(=O)O)Cc1ccc(cc1)OCc1cn(nn1)[C@H]1C[C@@H](C(=O)N[C@@H](Cc3c[nH]c4ccccc34)C(=O)N[C@H](C(=O)O)Cc3ccc(cc3)OCc3cn2nn3)N(C(=O)[C@@H](NC(=O)[C@H](C)NC)C(C)C)C1)C(C)C [Compound 125],< 2000,< 50
,C=CCOc1ccc(C[C@@H]2NC(=O)[C@@H]3C[C@@H](CN3C(=O)[C@@H](NC(=O)[C@H](C)NC)C(C)C)n3cc(nn3)COc3ccc(cc3)C[C@@H](C(=O)O)NC(=O)[C@H](Cc3ccc(OCC=C)cc3)NC(=O)[C@@H]3C[C@@H](CN3C(=O)[C@@H](NC(=O)[C@H](C)NC)C(C)C)n3cc(nn3)COc3ccc(cc3)C[C@@H](C(=O)O)NC2=O)cc1 [Compound 126],2000 to 12000,50 to 100
,CN[C@@H](C)C(=O)N[C@H](C(=O)N1C[C@@H]2C[C@H]1C(=O)N[C@@H](Cc1cccc(C(F)(F)F)c1)C(=O)N[C@H](C(=O)O)Cc1ccc(cc1)OCc1cn(nn1)[C@H]1C[C@@H](C(=O)N[C@@H](Cc3cccc(C(F)(F)F)c3)C(=O)N[C@H](C(=O)O)Cc3ccc(cc3)OCc3cn2nn3)N(C(=O)[C@@H](NC(=O)[C@H](C)NC)C(C)(C)C)C1)C(C)(C)C [Compound 129],< 2000,< 50
,CN[C@@H](C)C(=O)N[C@H](C(=O)N1C[C@@H]2C[C@H]1C(=O)N[C@@H](Cc1cccc(C(F)(F)F)c1)C(=O)N[C@H](C(=O)O)Cc1ccc(cc1)OCc1cn(nn1)[C@H]1C[C@@H](C(=O)N[C@@H](Cc3cccc(C(F)(F)F)c3)C(=O)N[C@H](C(=O)O)Cc3ccc(cc3)OCc3cn2nn3)N(C(=O)[C@@H](NC(=O)[C@H](C)NC)C2CCCCC2)C1)C1CCCCC1 [Compound 130],2000 to 12000,< 50
,CN[C@@H](C)C(=O)N[C@H](C(=O)N1C[C@@H]2C[C@H]1C(=O)N[C@@H](Cc1ccc(OC)c(OC)c1)C(=O)N[C@H](C(=O)O)Cc1ccc(cc1)OCc1cn(nn1)[C@H]1C[C@@H](C(=O)N[C@@H](Cc3ccc(OC)c(OC)c3)C(=O)N[C@H](C(=O)O)Cc3ccc(cc3)OCc3cn2nn3)N(C(=O)[C@@H](NC(=O)[C@H](C)NC)C(C)(C)C)C1)C(C)(C)C [Compound 131],2000 to 12000,> 100
,CN[C@@H](C)C(=O)N[C@H](C(=O)N1C[C@@H]2C[C@H]1C(=O)N[C@@H](Cc1ccc(OC)c(OC)c1)C(=O)N[C@H](C(=O)O)Cc1ccc(cc1)OCc1cn(nn1)[C@H]1C[C@@H](C(=O)N[C@@H](Cc3ccc(OC)c(OC)c3)C(=O)N[C@H](C(=O)O)Cc3ccc(cc3)OCc3cn2nn3)N(C(=O)[C@@H](NC(=O)[C@H](C)NC)C2CCCCC2)C1)C1CCCCC1 [Compound 132],> 12000,> 100
,CN[C@@H](C)C(=O)N[C@H](C(=O)N1C[C@@H]2C[C@H]1C(=O)N[C@@H](Cc1ccccc1)C(=O)N(C)[C@H](C(=O)O)Cc1ccc(cc1)OCc1cn(nn1)[C@H]1C[C@@H](C(=O)N[C@@H](Cc3ccccc3)C(=O)N(C)[C@H](C(=O)O)Cc3ccc(cc3)OCc3cn2nn3)N(C(=O)[C@@H](NC(=O)[C@H](C)NC)C(C)C)C1)C(C)C [Compound 133],< 2000,< 50
,CN[C@@H](C)C(=O)N[C@H](C(=O)N1C[C@@H]2C[C@H]1C(=O)N[C@@H](Cc1ccc3ccccc3c1)C(=O)N(C)[C@H](C(=O)O)Cc1ccc(cc1)OCc1cn(nn1)[C@H]1C[C@@H](C(=O)N[C@@H](Cc3ccc4ccccc4c3)C(=O)N(C)[C@H](C(=O)O)Cc3ccc(cc3)OCc3cn2nn3)N(C(=O)[C@@H](NC(=O)[C@H](C)NC)C(C)C)C1)C(C)C [Compound 134],< 2000,50 to 100
,CN[C@@H](C)C(=O)N[C@H](C(=O)N1CC2C[C@H]1C(=O)N[C@@H](Cc1ccc3ccccc3c1)C(=O)N[C@H](C(=O)O)Cc1cn(nn1)[C@H]1C[C@@H](C(=O)N[C@@H](Cc3ccc4ccccc4c3)C(=O)N[C@H](C(=O)O)Cc3cn2nn3)N(C(=O)[C@@H](NC(=O)[C@H](C)NC)C(C)C)C1)C(C)C [Compound 140],< 2000,< 50
